{
  "source": "patent US11999971B2",
  "about": "“Stem cell derived islet differentiation” (Vertex Pharmaceuticals Incorporated, priority 2018, dated 2024)",
  "assay_type_in_all_cases": "cell-based, human",
  "key": {"[1]": {"system": "Pdx1 expressing pancreatic progenitor cells (Stage 4/Stage 5 differentiation)", "assay": "PKC activator in Stage 4 and/or Stage 5 medium; FACS analysis of cell composition at end of Stage 5", "from_the_text": "(§1) In certain embodiments described herein, induced pluripotent stem cells are differentiated into SC-Di cells or precursors thereof in vitro. An exemplary differentiation protocol is outlined in FIG. 39. Endocrine progenitor cells produced by Stage 5 can comprise a mixture of cell types. For example, the composition can include NKX6.1+/ISL1+β cells, NKX6.1−/ISL1+α cells, NKX6.1−/ISL1− double negative cells, and enterochromaffin (EC) cells (FIG. 18B and FIG. 18C). For example, FIG. 18B and FIG. 18C show a Stage 5 process intermediate cell composition that comprises about 25% NKX6.1+/ISL1+β cells, about 14.5% NKX6.1−/ISL1+α cells, about 42.4% NKX6.1−/ISL1− double negative cells, and about 18.0% enterochromaffin (EC) cells. For certain applications described herein, such as the production of SC-islets, both NKX6.1−/ISL1− double negative (DN)SC-cells and SC-enterochromaffin (EC) cells are off target cell populations. To improve the Stage 5 cellular composition (e.g., increased percentage of NKX6.1+/ISL1+ SC-β cells and NKX6.1−/ISL1+ SC-α cells; decreased percentage of NKX6.1−/ISL1− SC-DN cells and SC-EC cells), modifications to the Stage 4 and/or Stage 5 medium were evaluated (FIG. 19).\nTo further improve the Stage 5 cellular composition (e.g., increased percentage of NKX6.1+/ISL1+β cells and NKX6.1−/ISL1+α cells; decreased percentage of NKX6.1−/ISL1− double negative cells and enterochromaffin (EC) cells), further modifications to the Stage 4 and/or Stage 5 medium were evaluated (FIG. 19).\nAs shown in FIGS. 25A-25B and FIG. 27, PKC activation (0.5 μM phorbol 12,13-dibutyrate) during Stage 4 decreases the percentage of VMAT1+ SC-EC cells at the end of Stage 5 from 24.8% to 4.9%.\nFIGS. 35A-35B show PKC activation increases the percentage of NKX6.1−/ISL1+ SC-α cells and decreases the percentage of NKX6.1+/ISL1− SC-EC cells at the end of Stage 5 when a PKC activator is used through several times points through Stage 4 or Stage 4 through Stage 5, including S4d3-S4d6, S4d3-S5d2, S4d5-S4d6, and S4d5-S5d2."}, "[2]": {"system": "Pdx1 expressing pancreatic progenitor cells (Stage 4 differentiation)", "assay": "PKC inhibitor in modified stage 4 medium during S4d5-S4d6; cell composition at end of Stage 5", "conditions": "for change in percentage of NKX6.1+/ISL1+ β cells at the end of Stage 5: FIG. 33A; for change in percentage of NKX6.1+/ISL1− SC-EC cells at the end of Stage 5: FIG. 33B"}, "[3]": {"system": "Pdx1 expressing pancreatic progenitor cells (Stage 4/Stage 5 differentiation)", "assay": "TNKS/Wnt inhibitor in Stage 4 and/or Stage 5 medium; cell composition at end of Stage 5", "from_the_text": "as §1\nAs shown in FIGS. 20A-20B and FIGS. 21A-21B, TNKS/Wnt inhibition during Stage 4 increased the percentage of NKX6.1+/ISL1+β cells (FIG. 21A; FIGS. 20A-20B) and decreased the percentage of NKX6.1−/ISL1− double negative cells (FIG. 21B; FIGS. 20A-20B) at the end of stage 5. Multiple TNKS/Wnt inhibitors that increase the percentage of NKX6.1+/ISL1+β cells at the end of Stage 5 at least two-fold over the control were identified (FIG. 28).\nFIGS. 30A-30B show TNKS inhibition increases the percentage of NKX6.1+/ISL1+SC-β cells and decreases the percentage of NKX6.1−/ISL1− SC-DN cells at the end of Stage 5 when TNK inhibitor is used through several times points through Stage 4 or Stage 4 through Stage 5, including S4d3-S4d6, S4d3-S5d2, S4d5-S4d6, and S4d5-S5d2."}},
  "data": [
    {"smiles": "CCCC(=O)O[C@@H]1[C@@H](C)[C@@]2(O)[C@@H](C=C(CO)C[C@]3(O)C(=O)C(C)=C[C@@H]23)[C@@H]2C(C)(C)[C@]12OC(=O)CCC", "note": "[phorbol 12,13-dibutyrate, Phorbol 12,13-dibutyrate]", "values": [
      {"measurement": "percentage of NKX6.1+/ISL1− SC-EC cells at the end of Stage 5", "setting": "[1]; 0.5 μM during S4d5-S5d2, control 32.1%", "result": 14.7, "unit": "%"},
      {"measurement": "percentage of NKX6.1−/ISL1+ SC-α cells at the end of Stage 5", "setting": "[1]; 0.5 μM during S4d5-S5d2, control printed 1 1.3%", "result": 38.2, "unit": "%"},
      {"measurement": "percentage of glucagon+ SC-α cells at the end of Stage 5", "setting": "[1]; 0.5 μM during Stage 4, control 5.7%", "result": 23.7, "unit": "%"},
      {"measurement": "percentage of ARX+ SC-α cells at the end of Stage 5", "setting": "[1]; 0.5 μM during Stage 4, control 10.4%", "result": 38.4, "unit": "%"},
      {"measurement": "percentage of VMAT1+ SC-EC cells at the end of Stage 5", "setting": "[1]; 0.5 μM during Stage 4, control 24.8%", "result": 4.9, "unit": "%"},
      {"measurement": "percentage of CDX2+ SC-EC cells at the end of Stage 5", "setting": "[1]; 0.5 μM during Stage 4, control 66.4%", "result": 21.5, "unit": "%"},
      {"measurement": "change in percentage of glucagon positive SC-α cells at the end of stage 5 vs control", "setting": "[1]; 0.5 μM during stage 4, FACS, FIG. 23", "result": "increased"},
      {"measurement": "change in percentage of ARX positive SC-α cells at the end of stage 5 vs control", "setting": "[1]; 0.5 μM during stage 4, FACS, FIG. 24", "result": "increased"},
      {"measurement": "change in percentage of VMAT1 positive SC-EC cells at the end of stage 5 vs control", "setting": "[1]; 0.5 μM during stage 4, FACS, FIG. 25", "result": "decreased"},
      {"measurement": "change in percentage of CDX2 positive SC-EC cells at the end of stage 5 vs control", "setting": "[1]; 0.5 μM during stage 4, FACS, FIG. 26", "result": "decreased"}
    ]},
    {"smiles": "COc1ccc2c(c1)c(C1=C(c3c[nH]c4ccccc34)C(=O)NC1=O)cn2CCCN(C)C", "note": "[Go 6983]", "values": [
      {"measurement": "change in percentage of NKX6.1+/ISL1+ β cells at the end of Stage 5", "setting": "[2]", "result": "decrease"},
      {"measurement": "change in percentage of NKX6.1+/ISL1− SC-EC cells at the end of Stage 5", "setting": "[2]", "result": "decrease"}
    ]},
    {"smiles": "Cn1cc(C2=C(c3cn(CCCSC(=N)N)c4ccccc34)C(=O)NC2=O)c2ccccc21", "note": "[Ro 31-8220]", "values": [
      {"measurement": "change in percentage of NKX6.1+/ISL1+ β cells at the end of Stage 5", "setting": "[2]", "result": "decrease"},
      {"measurement": "change in percentage of NKX6.1+/ISL1− SC-EC cells at the end of Stage 5", "setting": "[2]", "result": "decrease"}
    ]},
    {"smiles": "CN1CCN(c2nc(C3=C(c4c[nH]c5ccccc45)C(=O)NC3=O)c3ccccc3n2)CC1", "note": "[Sotrastaurin]", "values": [
      {"measurement": "change in percentage of NKX6.1+/ISL1+ β cells at the end of Stage 5", "setting": "[2]", "result": "decrease"},
      {"measurement": "change in percentage of NKX6.1+/ISL1− SC-EC cells at the end of Stage 5", "setting": "[2]", "result": "decrease"}
    ]},
    {"smiles": "Cc1cc(N2C[C@@H](C)N[C@@H](C)C2)ncc1-c1ccc(-c2nc3c(ccn3C)c(=O)[nH]2)cc1", "note": "[AZ6102]", "values": [
      {"measurement": "change in percentage of NKX6.1+/ISL1+ SC-β cells at the end of stage 5 vs control", "setting": "[3]; 0.5 μM during S4d5-S4d6, FACS, FIG. 30A", "result": "increased"},
      {"measurement": "change in percentage of NKX6.1+/ISL1+ SC-β cells at the end of stage 5 vs control", "setting": "[3]; 0.5 μM during Stage 4 or Stage 5, FIG. 31A", "result": "increased"},
      {"measurement": "change in percentage of NKX6.1−/ISL1− SC-DN cells at the end of stage 5 vs control", "setting": "[3]; 0.5 μM during Stage 4 or Stage 5, FIG. 31B", "result": "decreased"}
    ]}
  ]
}
